The values that follow come from US4829078A, “3-phenoxy (or phenylthio)--cyclopentanecarbonylamino acid analogues” (Ono Pharmaceutical Co., Ltd., priority 1985, dated 1989).

The subject of series [1] is organ slice of cat cerebral cortex. Kind of series: inhibition test on cerebral edema using organ slice of cat cerebral cortex (NaHCO3-stimulated swelling). To be noted: Felis catus, 50 min; gray matter slices, 50 minutes at 37° C., pH 7.4, NaHCO3 as stimulating agent of swelling; read-out: Inhibitory activity on cerebral edema (IC50). In kind it is cell-based. Here is the method: The inhibition test on cerebral edema using organ slice of cat cerebral cortex
The test was carried out by the method described in Journal of Medicinal Chemistry, Vol. 25 (No. 5), 567 (1982).
That is, brain was isolated from a cat (weighing 2≈4 kg), slices of about 1 mm in thickness was prepared, the white matter substance was removed, and the gray matter substance (100≈150 mg a test) was used for a sample. The sample was added to the following incubation medium and incubated for 50 minutes at 37° C. After the incubation, the sample was immediately weighed again to determine the swelling weight of the sample. incubation medium (osmotic pressure, 280≈290 mOsm/l)
1. Hepes Buffer (pH 7.4) . . . 2.365 ml
adjusted to pH 7.4 by NaOH
2. test compounds [dissolved in the presence of tris(hydroxymethyl)aminomethane] or water . . . 0.01 ml
3. 0.2M NaHCO3 . . . 0.125 ml (dissolved by Hepes Buffer, giving the final concentration of 10 mM in medium) […]
(C) A percentage of swelling when a slice sample was added to incubation medium comprising Hepes Buffer, the test compounds in various concentrations and NaHCO3. Above-mentioned (A), (B) and (C) were determined. Inhibition percentage of the test compounds was calculated by the following equation: [formula] IC50 value was determined by dose-response curve as a concentration in which inhibition percentage was 50.

A short description of series [2]: acute toxicity test in mice by intravenous administration. To be noted: mouse, in vivo. How it is done:
For example, in the acute toxicity test in mice by intravenous administration, LD50 value of compounds of example 1 and 1-(c) is the dose of between 200 and 400 mg/kg.

As to `C[C@H](NC(=O)[C@H]1CC[C@H](Oc2ccc(C(=O)c3ccccc3)c(Cl)c2Cl)C1)C(=O)O` [1-(c), N-{(1S,3S)-3-(2,3-dichloro-4-benzoylphenoxy)cyclopentanecarbonyl}alanine], the IC50 in series [1] was 0.5 µM. Also, the LD50 in series [2] was 200 to 400 mg/kg.
The like results for `O=C(O)CC[C@H](NC(=O)[C@H]1CC[C@H](Oc2ccc(C(=O)c3ccccc3)c(Cl)c2Cl)C1)C(=O)O` [Example 1, N-{(1S,3S)-3-(2,3-dichloro-4-benzoylphenoxy)cyclopentanecarbonyl}glutamic acid] were, in that order, 3 µM and 200 to 400 mg/kg.

As usually defined, the IC50 is the point on the concentration scale where inhibition reaches its midpoint. The LD50 is the dose at which mortality reaches 50%. The low end stands for greater toxicity, the high end for lower toxicity.
